Here are results for two compounds from patent publication US7763610B2, “Carboxylic acid derived benzoxazines as agents for the treatment of respiratory diseases” (Ono Pharmaceutical Co., Ltd., priority 2003, dated 2010).

In the test the target is T1, cysLT2 receptor (Homo sapiens, UniProt Q9NS75).
T1 construct: expressed in transfected cells; host or cells: HEK293
T1 sequence (Q9NS75 1-346): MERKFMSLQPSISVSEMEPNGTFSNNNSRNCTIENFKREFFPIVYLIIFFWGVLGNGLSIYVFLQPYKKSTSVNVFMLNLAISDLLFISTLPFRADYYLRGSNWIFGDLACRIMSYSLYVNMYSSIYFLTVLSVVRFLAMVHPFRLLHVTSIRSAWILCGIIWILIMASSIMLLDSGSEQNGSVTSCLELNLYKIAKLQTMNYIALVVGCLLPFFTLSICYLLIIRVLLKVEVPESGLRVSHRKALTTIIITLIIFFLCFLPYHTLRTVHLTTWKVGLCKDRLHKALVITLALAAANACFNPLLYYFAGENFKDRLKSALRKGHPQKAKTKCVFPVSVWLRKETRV
Nature of the test: Effect on LTD4-induced increase of intracellular calcium. It counts as cell-based. The following applies: HEK293 expression cells of cysLT2 receptor, 100 nM LTD4, compound 180 seconds before stimulation; read-out: IC50 value (50% inhibitory concentration, LTD4-induced intracellular calcium influx). On the procedure:
Expression cells of cysLT2 receptor (HEK293) were seeded in a 96-well plate each containing 1×10^5 cells. The cells were cultured for 24 hours in a 5% CO2 at 37° C. using DMEM (Dulbecco's Modified Eagle Medium). The cells were incubated in 7.5 μM Fura2-AM, 20 mM HEPES (2-[4-(2-hydroxyethyl)-1-piperazinyl]ethanesulfonic acid) and 2.5 mM probenecid for approximately 30 minutes at 37° C. The cells with uptake of Fura2-AM were once washed with assay buffer (Hank's buffer containing 20 mM HEPES) and intracellular calcium influx induced by LTD4 was measured by FDSS2000 (Hamamatsu Photonics K.K.). The compound of the present invention was administered 180 seconds before LTD4 stimulation, and the reaction induced by 100 nM LTD4 was measured in time course for 90 seconds. The effect of the compound of the present invention was evaluated by maximum fluorescence intensity, and 50% inhibitory concentration (IC50) was calculated on each compound.

Regarding `O=C(O)CCCN1CC(C(=O)O)Oc2c(OCc3ccc(OCCCCc4ccccc4)cc3)cccc21` (centres unmarked) [Example 25], the IC50 was determined as 0.03 µM.
Then `O=C(O)CCC(=O)N1CC(c2nnn[nH]2)Oc2c(NC(=O)c3ccc(OCCCCc4ccccc4)cc3)cccc21` (centres unmarked) [Example 12], with 0.101 µM.
